{"source": "patent US10858357B2", "about": "“Water-soluble myosin 2 inhibitors for the treatment of neurological, neuropathic or psychiatric diseases” (PARIS SCIENCES ET LETTRES-QUARTIER LATIN, priority 2016, dated 2020)", "key": {"[1]": {"target": "T1, rabbit skeletal muscle myosin S1 (SkS1) (Oryctolagus cuniculus, UniProt Q28641)", "T1 construct": "SkS1 (rabbit skeletal S1 fragment); from tissue; host or cells: rabbit skeletal muscle", "T1 sequence (Q28641 1-843 limits assumed)": "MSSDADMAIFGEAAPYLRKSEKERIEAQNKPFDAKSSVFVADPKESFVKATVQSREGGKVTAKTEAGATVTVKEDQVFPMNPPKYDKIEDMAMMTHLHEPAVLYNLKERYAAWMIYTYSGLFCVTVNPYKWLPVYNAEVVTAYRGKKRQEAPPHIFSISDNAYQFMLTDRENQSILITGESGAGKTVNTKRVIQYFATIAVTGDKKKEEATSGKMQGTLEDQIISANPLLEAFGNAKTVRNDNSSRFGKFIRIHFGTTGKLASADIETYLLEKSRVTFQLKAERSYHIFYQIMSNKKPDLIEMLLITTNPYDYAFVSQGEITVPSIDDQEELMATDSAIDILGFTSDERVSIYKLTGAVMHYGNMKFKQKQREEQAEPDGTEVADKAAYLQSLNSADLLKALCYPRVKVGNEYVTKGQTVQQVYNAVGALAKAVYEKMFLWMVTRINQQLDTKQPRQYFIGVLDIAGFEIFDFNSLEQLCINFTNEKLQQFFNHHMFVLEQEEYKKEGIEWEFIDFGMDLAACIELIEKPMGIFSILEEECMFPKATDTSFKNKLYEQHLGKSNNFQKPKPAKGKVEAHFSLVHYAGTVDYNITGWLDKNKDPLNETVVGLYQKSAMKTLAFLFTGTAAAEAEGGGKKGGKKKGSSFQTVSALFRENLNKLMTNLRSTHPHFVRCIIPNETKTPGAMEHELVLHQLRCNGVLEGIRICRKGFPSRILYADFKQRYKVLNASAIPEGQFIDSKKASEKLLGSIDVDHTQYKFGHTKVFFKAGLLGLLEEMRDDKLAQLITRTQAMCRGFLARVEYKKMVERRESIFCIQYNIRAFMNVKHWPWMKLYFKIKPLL", "T1 sequence (P02602 whole entry partner, the tested form may be a part)": "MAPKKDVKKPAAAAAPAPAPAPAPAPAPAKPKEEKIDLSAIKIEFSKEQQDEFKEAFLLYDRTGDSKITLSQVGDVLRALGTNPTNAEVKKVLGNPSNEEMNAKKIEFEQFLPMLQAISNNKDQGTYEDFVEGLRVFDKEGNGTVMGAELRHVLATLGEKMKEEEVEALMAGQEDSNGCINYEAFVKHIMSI", "assay": "Steady state MgATPase, NADH-coupled assay, SkS1", "assay_type": "biochemical", "protocol": "(§1) MgATPase activities of 500 nM (for basal ATPase) or 50 nM (for actin activated ATPase) SkS1 (rabbit skeletal S1 fragment) 23 and 1 μM (for basal ATPase) or 300 nM (for actin activated ATPase) DdMD were measured at increasing concentrations of neurelaxin-A in the absence or in the presence of 45 μM actin for SkS1 or 15 μM actin for DdMD. Measurements were carried out using a pyruvate kinase/lactate dehydrogenase coupled assay (NADH-coupled assay) (Kovacs M. et al., J. Biol. Chem. 2004, 279 (34), pp 35557-35563) at 25° C. or 20° C. in case of SkS1 or DdMD, respectively. Myosin and actin together with the indicated concentration of the inhibitor were pre-incubated for 5 minutes at room temperature and the measurements were initiated with 1 mM ATP. Data were corrected for background ATPase activity of actin. G-actin was prepared accordingly from rabbit skeletal muscle (Spudich, J. A. & Watt, S.; The Journal of Biological Chemistry 246, 1971, pp 4866-4871) and polymerized by 2 mM MgCl2 for 1 hour at room temperature. Measurements were performed in low salt buffer containing 5 mM HEPES, 2 mM MgCl2, 0.1 mM EGTA and 2 mM DTT at pH 7.2 or assay buffer containing 20 mM HEPES, 40 mM NaCl, 4 mM MgCl2 at pH 7.3 for basal ATPase activity measurements with DdMD.\n(§2) The basal and actin activated ATPase activities of rabbit skeletal muscle myosin S1 (SkS1) and Dictyostelium discoideum myosin 2 motor domain (DdMD) were measured at increasing concentrations of neurelaxin-A (FIGS. 3A and 3B)."}, "[2]": {"target": "T2, Dictyostelium discoideum myosin 2 motor domain (DdMD) (Dictyostelium discoideum, UniProt P08799)", "T2 construct": "Dictyostelium discoideum myosin 2 motor domain (DdMD)", "T2 sequence (P08799 86-759 limits assumed)": "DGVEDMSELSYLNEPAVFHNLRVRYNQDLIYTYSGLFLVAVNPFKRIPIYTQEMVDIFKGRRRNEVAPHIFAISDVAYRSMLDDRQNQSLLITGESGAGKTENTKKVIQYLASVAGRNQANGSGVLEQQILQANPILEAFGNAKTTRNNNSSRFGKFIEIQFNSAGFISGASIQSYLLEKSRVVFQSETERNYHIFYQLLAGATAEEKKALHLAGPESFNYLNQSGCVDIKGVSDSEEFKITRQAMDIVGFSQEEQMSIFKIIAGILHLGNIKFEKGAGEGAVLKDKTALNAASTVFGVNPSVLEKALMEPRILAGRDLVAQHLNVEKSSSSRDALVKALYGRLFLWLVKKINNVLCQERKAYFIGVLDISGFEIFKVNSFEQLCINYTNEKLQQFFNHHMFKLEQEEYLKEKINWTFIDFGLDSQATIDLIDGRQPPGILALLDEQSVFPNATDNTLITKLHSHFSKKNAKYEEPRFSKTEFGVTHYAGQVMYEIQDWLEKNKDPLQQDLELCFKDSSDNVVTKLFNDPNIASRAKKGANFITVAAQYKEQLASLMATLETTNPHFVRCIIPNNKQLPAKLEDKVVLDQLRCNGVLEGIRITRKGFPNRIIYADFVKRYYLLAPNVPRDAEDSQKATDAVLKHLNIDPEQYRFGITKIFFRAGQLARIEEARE", "assay": "Steady state MgATPase, NADH-coupled assay, DdMD", "assay_type": "biochemical", "details": "for IC50: 20° C.", "protocol": "as §1, §2"}, "[3]": {"test_system": "embryonic mouse hippocampal cells", "assay": "Neurite growth in embryonic hippocampal cell culture", "assay_type": "cell-based", "details": "50 μM", "protocol": "Embryonic mouse hippocampal cells were isolated from 17-day-old embryo and cultured on poly-D-lysine coated dish in neurobasal medium complemented with B27, FCS and glutamax for 20 hours.\nThe growth of neurites was monitored by phase contrast microscopy after the addition of 50 μM neurelaxin-A (Imaging buffer: Extracell isotonic salt solution, buffered with 5 mM HEPES)."}, "[4]": {"test_system": "Mauthner axon of zebrafish embryos", "assay": "Mauthner axon regeneration after photoablation", "assay_type": "in vivo", "details": "3 dpf zebrafish embryos", "from_the_text": "The Mauthner neuron is a giant neuron in the hindbrain of zebrafish embryos, which is a widely used model for studying regeneration. The Mauthner axon of 3 dpf zebrafish embryos was photoablated with two-photon irradiation at 800 nm."}, "[5]": {"test_system": "embryonic rat hippocampal neurons", "assay": "Cannabinoid (WIN55,212-2)-induced growth cone retraction", "assay_type": "cell-based", "details": "100 μM pre-treatment, WIN55,212-2 100 nM", "protocol": "Embryonic rat hippocampal neurons were isolated from 18-day-old embryo and cultured on poly-D-lysine coated dish in Neurobasal medium complemented with B27, FBS and glutamax for 6 days and transfected by using Lipofectamine 2000 with DNA codig for LifeAct-mCherry and CB1R-CFP.\nThe growth of neurites were monitored by fluorescent miscroscopy after the addition of different pre-treatment doses of neurelaxin-A at 20 minutes, followed 20 minutes later by the addition of 100 nM of the synthetic cannabinoid WIN55,212-2 as described in Roland et al, 2014."}, "[6]": {"test_system": "cannabinoid-induced working memory loss", "assay": "Novel object recognition (NOR) test with CP55,940", "assay_type": "in vivo", "protocol": "In this experiment, a novel object recognition (NOR) test was performed.\nIn this test animals are presented to two objects and it will explore them for a while. After, one of the objects is changed for a new and different one. Under normal circumstances animals will be attracted to the novel object and will spend more time exploring it, by comparison to the older and already known object. Animals with memory deficit will explore both objects equally.\nThe synthetic cannabinoid CB1R agonist CP55,940 is administrated 1 hour prior to the familiarization step. Thirty minutes prior to the familiarization animals are either treated or not with neurelaxin-A."}, "[7]": {"assay": "Fluorescence emission spectrum", "assay_type": "physicochemical", "details": "5 μM, λexc=350 nm, assay buffer 0.1% DMSO", "protocol": "(§3) Fluorescence emission spectra (λexc=350 nm) were recorded in assay buffer containing 0.1% DMSO applying the inhibitors at 5 μM concentrations. The photoconversion measurements were carried out using 5 μM neurelaxin-A in assay buffer and irradiating the samples at 480±10 nm for 0, 5, 10 and 15 minutes using a Fluorescence Spectrometer (F900, Edinburgh Instruments) equipped with a 450 W Xenon Lamp. Their absorbance spectra were measured at each time point.\nFluorescence emission spectra (λexc.=350 nm) were recorded in assay buffer containing 0.1% DMSO comprising the inhibitor at 5 μM concentration."}, "[8]": {"assay": "Photostability under 480±10 nm irradiation", "assay_type": "physicochemical", "details": "5 μM, 480±10 nm for 0, 5, 10 and 15 minutes", "protocol": "as §3\nNeurelaxin-A's photostability was measured by irradiating the compound in assay buffer at 480±10 nm for 0, 5, 10 and 15 minutes and recorded the absorption spectra afterwards (FIG. 2C)."}}, "note": "Read-outs that look alike come from different tables or passages of the source."}
{"smiles": "Cc1ccc2c(c1)C(=O)C1(O)CCN(c3ccc(N)cc3)C1=N2", "note": "(stereo not shown) [Neurelaxin-A, 1-(4-aminophenyl)-3a-hydroxy-6-methyl-3,3a-dihydro-1H-pyrrolo[2,3-b]quinolin-4(2H)-one]", "values": [{"measurement": "maximal extent of inhibition, actin activated ATPase of SkS1", "setting": "[1]; actin activated", "value": "98-100%"}, {"measurement": "IC50", "setting": "[1]; actin activated, 50 nM SkS1, 45 μM actin, 25° C., read-out: IC50 actin activated ATPase activity of SkS1", "value": "0.47 ± 0.06", "unit": "µM"}, {"measurement": "maximal extent of inhibition, basal ATPase of SkS1", "setting": "[1]; basal", "value": "98-100%"}, {"measurement": "IC50", "setting": "[1]; basal, 500 nM SkS1, 25° C., read-out: IC50 basal ATPase of SkS1", "value": "1.3 ± 0.1", "unit": "µM"}, {"measurement": "inhibition reached, actin activated ATPase of DdMD", "setting": "[2]; actin activated", "value": 80, "unit": "%"}, {"measurement": "IC50", "setting": "[2]; actin activated, 300 nM DdMD, 15 μM actin, read-out: IC50 actin activated ATPase activity of DdMD", "value": "6.7 ± 1.9", "unit": "µM"}, {"measurement": "inhibition reached, basal ATPase of DdMD", "setting": "[2]; basal", "value": 90, "unit": "%"}, {"measurement": "IC50", "setting": "[2]; basal, 1 μM DdMD, read-out: IC50 basal ATPase of DdMD", "value": "6.6 ± 2", "unit": "µM"}, {"measurement": "rate of neurite growth", "setting": "[3]", "value": 1, "unit": "μm/min"}, {"measurement": "rate of neurite growth", "setting": "[3]; listed as neurelaxin-A", "value": "approximately 1 μm/min"}, {"measurement": "maximum rate of axon growth", "setting": "[4]", "value": 0.6, "unit": "um/min"}, {"measurement": "time after treatment at which axon regrowth is induced", "setting": "[4]", "value": 1, "unit": "h"}, {"measurement": "time of treatment at which maximum rate of growth is reached", "setting": "[4]", "value": 2, "unit": "h"}, {"measurement": "start of axon regrowth post-ablation", "setting": "[4]; spontaneous regrowth normally after 30 hours", "value": 19, "unit": "h"}, {"measurement": "cannabinoid-induced retraction of axonal growth cones", "setting": "[5]", "value": "significantly prevented"}, {"measurement": "NOR test: effect on memory without cannabinoid", "setting": "[6]; animals non-treated with CP55,940", "value": "does not impact negatively the memory"}, {"measurement": "NOR test: memory after cannabinoid exposure", "setting": "[6]; pre-treated animals, CP55,940 exposure", "value": "are not affected by the cannabinoid exposure"}, {"measurement": "fluorescence signal", "setting": "[7]", "value": "no fluorescence signal"}, {"measurement": "photostability: absorption spectrum after irradiation", "setting": "[8]", "value": "has not been altered"}]}
